Test results reported in paper PMC5021948, “Amyloidogenic amyloid-β-peptide variants induce microbial agglutination and exert antimicrobial activity” (Scientific Reports, 2016).

Columns and labels:
[1] = test system: Enterococcus faecalis (ATCC 29212); experiment: Colony forming units after plating Aβ-treated cultures; type: cell-based; conditions: 50 μg/ml peptide, 6 h, Mueller-Hinton broth, inoculum 5 × 10^5 cells/ml, spiral plated, colonies counted after 24 h
Procedure: (§1) Enterococcus faecalis (ATCC 29212), Listeria monocytogenes (VA 15110/93), Escherichia coli (DH5α) and Staphylococcus aureus (ATCC 25923) were grown aerobically on blood agar plates. Candida albicans (ATCC 10231) was plated on Sabouraud dextrose agar plates. E. coli, S. aureus and C. albicans were cultured at 37 °C; E. faecalis and L. monocytogenes were cultured at 37 °C with an additional 5% CO2. Before the experiments, the organisms were subcultured to generate mid-logarithmic growth cultures for use as inoculates. Colonies from the agar were transferred using a sterile loop to Mueller-Hinton broth (Roth, Karlsruhe, Germany) and incubated for 100 min at 39 °C to achieve a McFarland density of 0.5. The C. albicans and bacterial inocula were normalized in Mueller-Hinton broth to 5 × 10^5 cells/ml immediately before use. For the experiments, an inoculum of 5 × 10^5 cells/ml was dispensed into 96-well plates containing Mueller-Hinton broth growth medium with Aβ peptides, as indicated below.
(§2) Immediately before the experiments, all peptides were diluted in Mueller-Hinton broth to reach a final concentration of 100 μg/ml.
(§3) The viability of E. faecalis, E. coli and C. albicans was further examined by plating Aβ-treated cultures on agar plates. Cultures of E. coli, E. faecalis and C. albicans were prepared as described above. After incubation with 50 μg/ml Aβ1-40, Aβ1-42 or Aβ3p-42 for 6 h for bacteria and 20 h for C. albicans, the cell suspensions were diluted in Mueller-Hinton broth, and the microbial load was determined using an Eddy Jet Spiral Plater (IUL Instruments, Germany) by depositing 50 μl of sample on a rotating agar plate. Bacteria were grown on Mueller-Hinton agar plates, and C. albicans was grown on Sabouraud dextrose agar plates. After 24 h of incubation, colonies were counted and translated to colony-forming units (CFU)/ml.

[2] = test system: Candida albicans (ATCC 10231); experiment: as above; type: cell-based; conditions: 50 μg/ml peptide
Procedure: as §1, §2, §3

[3] = test system: Escherichia coli (DH5α); experiment: as above; type: cell-based; conditions: 50 μg/ml peptide, 6 h, Mueller-Hinton broth, inoculum 5 × 10^5 cells/ml, spiral plated, colonies counted after 24 h
Procedure: as §1, §2, §3

[4] = test system: E. faecalis; experiment: Scanning electron microscopy; type: cell-based, Enterococcus faecalis; conditions: 50 μg/ml, 6 h
From the text: The specimens were attached to aluminum holders and sputtered with platinum in 15-nm layers using a LEICA EM SCD-500 (Leica, Wetzlar, Germany). The surface morphology of the platinum sputter-coated samples was investigated using a JSM 6 610 scanning electron microscope (JEOL, Peabody, MA, USA) at a working distance of 10 mm and an acceleration voltage of 10 kV at room temperature.

[5] = test system: E. faecalis, E. coli, S. aureus, L. monocytogenes and C. albicans; experiment: Flow cytometry of damaged microorganisms (increased autofluorescence / reduced forward scatter); type: cell-based; conditions: 25 or 50 μg/ml, 6 h bacteria, 20 h C. albicans
Procedure: as §1, with “below. […]” for “below.”
After 6 h of incubation for bacteria and 20 h for C. albicans, 50 μl of the cell suspension was diluted in 1% paraformaldehyde (Sigma-Aldrich, Munich, Germany) and stained with DAPI (Sigma-Aldrich, Munich, Germany). Flow cytometry analysis was performed using a Gallios Cytometer (Beckman Coulter, Krefeld, Germany), and the results were evaluated using Kaluza® software (Beckman & Coulter, Krefeld, Germany). Experiments were repeated at least three times for each organism, and duplicates were included for each assay condition. Cultures treated with antibiotics, Mueller-Hinton broth without cells and untreated cells served as controls. Viability was assessed based on the increase in autofluorescence and reduction of forward scatter as signs of microbial damage.

[6] = test system: C. albicans; experiment: Proliferation by turbidimetry at 570 nm; type: cell-based, Candida albicans; conditions: 3.13 or 6.25 μg/ml, 20 h (Fig. 5 legend: 24 h), 37 °C
Procedure: as §1
An inoculum of 5 × 10^5 cells/ml was dispensed into 96-well plates containing Mueller-Hinton broth growth medium and 3.13 μg/ml or 6.25 μg/ml Aβ-peptides or LL-37 (Anaspec, Fremont, CA, USA). […] The resulting absorbance was measured with a SpectraMax 340 PC 384 microplate reader (Molecular Devices, Biberach, Germany). The proliferation of C. albicans was assessed by measuring turbidity at 570 nm.

[7] = test system: S. aureus; experiment: Automated quantification of cell aggregation on immunocytochemistry slides; type: cell-based, Staphylococcus aureus; conditions: 50 μg/ml, 6 h
Procedure: (§4) The immunocytochemistry of E. faecalis and S. aureus was examined using the Gram preparations specified above. To achieve the robust adherence of pathogens on the glass slides during the staining procedure, cells were incubated with 2% paraformaldehyde (Sigma-Aldrich, Munich, Germany) on the slides and air dried for 60 min at room temperature, followed by washing with PBS (Biochrom, Berlin, Germany). […]
(§5) All images were visually quality controlled. […] An automated quantitative phenotypic image analysis was performed using a custom-adapted version of the image analysis software DetecTiff. Pericellular Aβ peptide levels were quantified from the AF488 channel within donut-shaped masks (see Fig. 1B), which were generated from the DAPI channel in a three-step procedure. […] The Aβ peptide level in an individual cell was calculated as the arithmetic mean of all pixel values within the area of a donut-shaped mask and reported as the mean pixel intensity. Cell aggregation was quantified in an automated manner from segmented images of DAPI-stained nuclei by counting the number of bacteria adjacent to a selected individual bacterium within a rectangular 50-pixel[2] region.

[8] = test system: E. faecalis, E. coli, S. aureus, L. monocytogenes and C. albicans; experiment: Gram staining, microbial agglutination; type: cell-based; conditions: 50 μg/ml, 6 h (20 h for C. albicans)
Procedure: as §1
The same cultures analysed by flow cytometry were used for the gram staining. After incubating the bacteria and C. albicans with the peptides, 10 μl of the cell suspensions were air-dried on microscope slides and flame-fixated. The smears were flooded with crystal violet solution for 2 min. The slides were rinsed and then incubated for 2 min with iodine solution. […]

[9] = test system: E. faecalis; experiment: Automated quantification of cell aggregation on immunocytochemistry slides; type: cell-based, Enterococcus faecalis; conditions: 50 μg/ml, 6 h
Procedure: as §4, §5

[10] = Thioflavin T assay of Aβ peptide aggregation; type: physicochemical; conditions: 160 μg/ml in PBS/0.4% NH4OH, 0.2 mM Thioflavin T, 37 °C, 6 h, Ex 450/Em 484 nm; with heat inactivated E. coli, S. aureus or C. albicans (McFarland 0.5) versus PBS alone or 0.5 μm carboxylated microbeads
Procedure: Thioflavin T was used to monitor the aggregation of Aβ1-42 in the presence of microorganisms. In a black 96-well plate, 160 μg/ml of Aβ1-42 in PBS/0.4% NH4OH were mixed with heat inactivated E. coli, S. aureus or C. albicans at a final density of McFarland 0.5. Leaving away the microorganisms or adding 10 μg/ml carboxylated microbeads (Micromod, Rostock, Germany) with a diameter of 0.5 μm served as control. After adding Thioflavin T (Sigma-Aldrich, Munich, Germany) in final concentration of 0.2 mM, kinetic measurement was performed at 37 °C with excitation at 450 nm and emission at 484 nm in a CLARIOstar® microplate reader (BMG labtech, Ortenberg, Germany). Measurements containing the respective microorganisms but no Aβ1-42 served as blank.

[11] = test system: surfaces of E. faecalis and S. aureus; experiment: Immunocytochemistry (6E10), Aβ peptide bound to microbial surface; type: binding; conditions: 50 μg/ml, 6 h, 6E10 antibody, mean pixel intensity in donut-shaped masks

Aβ1-40: non-amyloidogenic amyloid-β peptide variant ending at position 40 (Anaspec)
reduction of the number of colony forming units compared to untreated cultures [1]: not reduced | antimicrobial effect in culture (colony forming units) ([2]; 20 h): moderate antimicrobial effect | reduction of the number of colony forming units compared to untreated cultures [3]: not reduced | aggregates of bacteria in scanning electron microscopy [4]: Only minor aggregates | antimicrobial / microbicidal activity by flow cytometry [5]: No microbicidal activity was observed | proliferation of C. albicans (turbidity) [6]: miss the cytotoxic effect | agglutination of bacteria (number of cells around each bacterium) [7]: almost no agglutination | microbial agglutination in Gram stains [8]: Neither Aβ1-40 nor Aβ2-40 induced microbial agglutination | agglutination of bacteria (number of cells around each bacterium) [9]: almost no agglutination

Aβ1-42: amyloidogenic amyloid-β peptide variant ending at position 42 (Anaspec)
reduction of the number of colony forming units compared to untreated cultures [1]: 50% | reduction of the number of colony forming units ([2]; 20 h (Fig. 5 legend: 24 h), Sabouraud dextrose agar, colonies counted after 24 h): 85% | reduction of the number of colony forming units compared to untreated cultures [3]: 50% | agglutination (aggregation) of the peptide, Thioflavin fluorescence over time [10]: more rapid increase in Thioflavin fluorescence | antimicrobial / microbicidal activity by flow cytometry [5]: exerted antimicrobial activity | damaged microorganisms (reduced forward scatter and increased autofluorescence, AF+/FSC−), share of cells ([5]; DAPI-positive events): up to 70% | agglutination of bacteria (number of cells around each bacterium) [7]: led to agglutination | binding of Aβ peptide to microbial surfaces [11]: bound to microbial surfaces | agglutination of bacteria (number of cells around each bacterium) [9]: led to agglutination

Aβ2-40: non-amyloidogenic, N-terminally truncated amyloid-β peptide variant ending at position 40 (Anaspec)
aggregates of bacteria in scanning electron microscopy [4]: larger aggregates of bacteria that retained their vital morphology | antimicrobial / microbicidal activity by flow cytometry [5]: No microbicidal activity was observed | proliferation of C. albicans (turbidity) [6]: miss the cytotoxic effect | microbial agglutination in Gram stains [8]: Neither Aβ1-40 nor Aβ2-40 induced microbial agglutination
